The text below walks through data of PubChem BioAssay AID248 (DTP/NCI, 2004).

Where “and” joins values, the source holds several entries; their conditions need not be identical. Identical values can stand only once. Inconclusive results and toxic doses are left out.

The test system of the assay is L1210 leukemia ip in BDF1 mice, survival T/C. Description: NCI In Vivo Anticancer Drug Screen. Data for tumor model L1210 Leukemia (intraperitoneal) in B6D2F1 (BDF1) mice. Conditions: endpoint: mean survival time, higher = longer survival. The method, boiled down:
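Read-out is survival time, reported as the treated-group measurement over the vehicle-control measurement.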

[1] abbreviates: dose: 100.0 mg/kg/injection, schedule: Q01DX001 (ip), vehicle: saline.
Where [2] appears, read: dose: 100.0 mg/kg/injection, schedule: Q04DX003 (ip), vehicle: Klucel (hydroxypropylcellulose) (HPC).
Setting [3] is: dose: 200.0 mg/kg/injection, schedule: Q04DX003 (ip), vehicle: saline.
Setting [4] is: dose: 200.0 mg/kg/injection, schedule: Q04DX003 (ip), vehicle: Klucel (hydroxypropylcellulose) (HPC).
The mark [5] stands for this setting: dose: 400.0 mg/kg/injection, schedule: Q04DX003 (ip), vehicle: Klucel (hydroxypropylcellulose) (HPC).

With `c1nc(SSc2ncnc3nc[nH]c23)c2[nH]cnc2n1`, the T/C reads like this: (dose: 0.1 mg/kg/injection, schedule: Q04DX003 (ip), vehicle: saline) 97 % of control; (dose: 0.12 mg/kg/injection, schedule: Q04DX003 (ip), vehicle: saline) 119 % of control; (dose: 0.2 mg/kg/injection, schedule: Q04DX003 (ip), vehicle: saline) 119 % of control; (dose: 0.25 mg/kg/injection, schedule: Q04DX003 (ip), vehicle: saline) 117 % of control; (dose: 0.35 mg/kg/injection, schedule: Q01DX009 (ip), vehicle: saline) 100 % of control; (dose: 0.5 mg/kg/injection, schedule: Q04DX003 (ip), vehicle: saline) 120 % of control. Also, the T/C was 152 % of control (dose: 0.8 mg/kg/injection, schedule: Q01DX009 (ip), vehicle: saline); 98 % of control (dose: 0.8 mg/kg/injection, schedule: Q04DX003 (ip), vehicle: saline with Tween-80); 106 % of control (dose: 1.6 mg/kg/injection, schedule: Q04DX003 (ip), vehicle: saline with Tween-80); 239 % of control (dose: 3.0 mg/kg/injection, schedule: Q04DX003 (ip), vehicle: saline); 121 % of control (dose: 3.08 mg/kg/injection, schedule: Q01DX001 (ip), vehicle: saline with Tween-80); 113 % of control (dose: 3.25 mg/kg/injection, schedule: Q04DX003 (ip), vehicle: saline with Tween-80). For the same molecule, the T/C runs as follows: (dose: 5.5 mg/kg/injection, schedule: Q04DX003 (ip), vehicle: Klucel (hydroxypropylcellulose) (HPC)) 121 % of control; (dose: 6.0 mg/kg/injection, schedule: Q04DX003 (ip), vehicle: saline) 112 % of control; (dose: 7.5 mg/kg/injection, schedule: Q04DX003 (ip), vehicle: saline) 189 % of control; (dose: 10.0 mg/kg/injection, schedule: Q01DX001 (ip), vehicle: saline) 118 % of control; (dose: 10.0 mg/kg/injection, schedule: Q01DX009 (ip), vehicle: saline) 169 % of control; (dose: 12.0 mg/kg/injection, schedule: Q01DX001 (ip), vehicle: saline) 103 % of control. Besides, the T/C was 154 % of control (dose: 12.0 mg/kg/injection, schedule: Q04DX003 (ip), vehicle: saline); 154 % of control (dose: 15.0 mg/kg/injection, schedule: Q01DX009 (ip), vehicle: saline); 159 % of control (dose: 15.0 mg/kg/injection, schedule: Q04DX003 (ip), vehicle: saline); 151 % of control (dose: 25.0 mg/kg/injection, schedule: Q04DX003 (ip), vehicle: saline); 157 % of control (dose: 26.0 mg/kg/injection, schedule: Q04DX003 (ip), vehicle: saline with Tween-80); 106 % of control (dose: 29.7 mg/kg/injection, schedule: Q04DX003 (ip), vehicle: saline). The T/C reads like this: (dose: 30.0 mg/kg/injection, schedule: Q04DX003 (ip), vehicle: saline) 90 % of control; (dose: 33.0 mg/kg/injection, schedule: Q04DX003 (ip), vehicle: Klucel (hydroxypropylcellulose) (HPC)) 120 % of control; (dose: 35.0 mg/kg/injection, schedule: Q01DX009 (ip), vehicle: saline with Tween-80) 163 % of control; (dose: 35.0 mg/kg/injection, schedule: Q04DX003 (ip), vehicle: Klucel (hydroxypropylcellulose) (HPC)) 198 % of control; (dose: 39.0 mg/kg/injection, schedule: Q04DX003 (ip), vehicle: saline with Tween-80) 172 % of control; (dose: 44.0 mg/kg/injection, schedule: Q01DX009 (ip), vehicle: saline) 100 % of control. Further, the T/C is 202 % of control (dose: 44.0 mg/kg/injection, schedule: Q04DX003 (ip), vehicle: saline); 106 % of control (dose: 50.0 mg/kg/injection, schedule: Q01DX009 (ip), vehicle: saline); 152 % of control and 209 % of control (dose: 50.0 mg/kg/injection, schedule: Q04DX003 (ip), vehicle: Klucel (hydroxypropylcellulose) (HPC)); 123 % of control and 203 % of control (dose: 50.0 mg/kg/injection, schedule: Q04DX003 (ip), vehicle: saline); 168 % of control (dose: 52.0 mg/kg/injection, schedule: Q04DX003 (ip), vehicle: saline with Tween-80); 95 % of control (dose: 63.0 mg/kg/injection, schedule: Q01DX Z (ip), vehicle: saline). The T/C runs as follows: (dose: 66.0 mg/kg/injection, schedule: Q01DX001 (ip), vehicle: saline) 157 % of control; (dose: 66.0 mg/kg/injection, schedule: Q04DX003 (ip), vehicle: saline) 216 % of control; (dose: 67.5 mg/kg/injection, schedule: Q04DX003 (ip), vehicle: saline) 106 % of control; (dose: 70.0 mg/kg/injection, schedule: Q01DX009 (ip), vehicle: saline with Tween-80) 93 % of control; (dose: 70.0 mg/kg/injection, schedule: Q04DX003 (ip), vehicle: saline) 178 % of control; under setting [1], 155 % of control. Also, the T/C is, setting by setting: under setting [2], 124 % of control; (dose: 140.0 mg/kg/injection, schedule: Q04DX003 (ip), vehicle: saline) 103 % of control; under setting [3], 89 % of control.

In the case of `CCCCCCCCCCCCCCCCCC(=O)Oc1c(C(C)(C)C)cc([N+](=O)[O-])c(C)c1[N+](=O)[O-]`, the T/C is, setting by setting: (dose: 100.0 mg/kg/injection, schedule: Q04DX002 (ip), vehicle: Klucel (hydroxypropylcellulose) (HPC)) 92 % of control; (dose: 200.0 mg/kg/injection, schedule: Q04DX002 (ip), vehicle: Klucel (hydroxypropylcellulose) (HPC)) 92 % of control; (dose: 400.0 mg/kg/injection, schedule: Q04DX002 (ip), vehicle: Klucel (hydroxypropylcellulose) (HPC)) 96 % of control.

Turning to `CC(=O)Nc1ccc(OC(=O)Nc2c(C)cccc2C)cc1`, the T/C by setting is: under setting [2], 100 % of control; under setting [4], 91 % of control; under setting [5], 91 % of control.

For `CC[N+](C)(CC)CCOC(=O)C1C2CC3OC(=O)C1C3C2` (stereo not given), the T/C (dose: 100.0 mg/kg/injection, schedule: Q04DX003 (ip), vehicle: saline) is 108 % of control and the T/C under setting [3] is 112 % of control.

As for `N#Cc1nc2c(nc1C#N)-c1ccccc1C2=O`, the T/C was 99 % of control (dose: 6.25 mg/kg/injection, schedule: Q01DX009 (ip), vehicle: Klucel (hydroxypropylcellulose) (HPC)); 94 % of control (dose: 12.5 mg/kg/injection, schedule: Q01DX009 (ip), vehicle: Klucel (hydroxypropylcellulose) (HPC)); 104 % of control (dose: 12.5 mg/kg/injection, schedule: Q04DX003 (ip), vehicle: Klucel (hydroxypropylcellulose) (HPC)); 112 % of control (dose: 25.0 mg/kg/injection, schedule: Q04DX003 (ip), vehicle: Klucel (hydroxypropylcellulose) (HPC)).

Regarding `CCOC(=O)C(C#N)C(C)CC(C)C` (stereo not given), the T/C (dose: 50.0 mg/kg/injection, schedule: Q01DX001 (ip), vehicle: saline with Tween-80) is 102 % of control; the T/C (dose: 100.0 mg/kg/injection, schedule: Q01DX001 (ip), vehicle: saline with Tween-80) was 102 % of control; the T/C (dose: 200.0 mg/kg/injection, schedule: Q01DX001 (ip), vehicle: saline with Tween-80) is 93 % of control.

With `CC1(C)OC2C(C(=O)NO)OC(n3cnc4c(N)ncnc43)C2O1` (stereo not given), the T/C is, setting by setting: (dose: 100.0 mg/kg/injection, schedule: Q01DX005 (ip), vehicle: saline) 101 % of control; (dose: 200.0 mg/kg/injection, schedule: Q01DX005 (ip), vehicle: saline) 101 % of control.

For the molecule `OCCCCc1ccccc1`, the T/C is, setting by setting: (dose: 100.0 mg/kg/injection, schedule: Q01DX001 (ip), vehicle: saline sonified) 95 % of control; (dose: 100.0 mg/kg/injection, schedule: Q01DX009 (ip), vehicle: saline sonified) 104 % of control; (dose: 200.0 mg/kg/injection, schedule: Q01DX001 (ip), vehicle: saline sonified) 101 % of control; (dose: 200.0 mg/kg/injection, schedule: Q01DX009 (ip), vehicle: saline sonified) 97 % of control; (dose: 400.0 mg/kg/injection, schedule: Q01DX001 (ip), vehicle: saline sonified) 111 % of control.

Take `O=[N+]([O-])c1ccc(/C=C/c2ccccc2Cl)cc1`: the T/C is, setting by setting: (dose: 100.0 mg/kg/injection, schedule: Q01DX009 (ip), vehicle: Klucel (hydroxypropylcellulose) (HPC)) 97 % of control; under setting [2], 109 % of control; (dose: 200.0 mg/kg/injection, schedule: Q01DX009 (ip), vehicle: Klucel (hydroxypropylcellulose) (HPC)) 97 % of control; under setting [4], 104 % of control; (dose: 400.0 mg/kg/injection, schedule: Q01DX009 (ip), vehicle: Klucel (hydroxypropylcellulose) (HPC)) 101 % of control; under setting [5], 107 % of control.

With `CN=C1C2CCC(C2)CC1(O)c1ccccc1` (stereo not given), the T/C is 102 % of control (dose: 50.0 mg/kg/injection, schedule: Q01DX001 (ip), vehicle: saline) and 102 % of control under setting [1].
